# Experimental data reported in patent US4659717A, “Dihydropyridines useful in the treatment of angina and stroke” (Eli Lilly and Company, priority 1985, dated 1987).
# System: Dog Coronary Artery
# Assay: Dog coronary artery test: relaxation of KCl-contracted coronary artery rings
# Assay type: cell-based
# Settings: Canis lupus familiaris, coronary artery rings contracted with 50 mM KCl, 37° C.; IC50 = 50% relaxation; mean values, probit analysis
# Method: Mongrel dogs of either sex and weighing 15 to 30 kg were anesthetized with pentobarbital (35 mg/kg). Each heart was quickly removed through a right thoracotomy and placed in Kreb's bicarbonate solution of the following composition (mM/L): NaCl, 118.2; KCl, 4.6; CaCl2.2H2 O, 1.6; KH2 PO4, 1.2; MgSO4.7H2 O, 1.2; NaHCO3, 24.8; and dextrose, 10.0. The medium was kept at room temperature and saturated with 95% O2 /5% CO2. The left anterior descending and circumflex coronary arteries were isolated and used either immediately or stored overnight at 5° C. Arteries were cut into rings approximately 2 to 3 mm wide, placed on 2 L-shaped hooks and mounted in a 10 ml organ bath by attaching one hook to a stationary glass rod and the other hook to a force-displacement transducer. Tissue medium consisted of Kreb's bicarbonate solution maintained at 37° C. and bubbled with 95 % O2 /5% CO2. Artery rings were equilibrated for 1-2 hours under a resting tension of 3 g. Tissue medium was then changed to one containing 50 mM KCl and 72.8 mM NaCl but otherwise identical to Kreb's bicarbonate solution. After tissues achieved a steady state contractile tension (1-2 hours) a given test agent was added to each bath and concentration-response curves determined. […] At the end of the concentration-response curve, tissue medium was changed to one identical to the 50 mM KCl buffer but containing 2.5 mM EGTA and no CaCl2.2H2 O to obtain complete relaxation of the tissue. Percent relaxation was then determined for each concentration and values producing 50% relaxation (IC50) were estimated using a probit analysis.
row,IC50 [µM],Compound
1,0.251,"COC(=O)C1=C(C)NC(C)=C(C(=O)OCCC#N)C1c1csc2ccccc12 (centres unmarked) [Example 35, 4-Benzo[b]thien-3-yl-1,4-dihydro-2,6-dimethyl-3,5-pyridinecarboxylic acid, 2-cyanoethyl methyl ester]"
2,0.251,"COC(=O)C1=C(C)NC(C)=C(C(=O)OC(C)C)C1c1csc2ccccc12 (centres unmarked) [Example 38, 4-Benzo[b]thien-3-yl-1,4-dihydro-2,6-dimethyl-3,5-pyridinedicarboxylic acid, methyl 1-methylethyl ester]"
3,0.891,"COCCOC(=O)C1=C(C)NC(C)=C(C(=O)OC(C)C)C1c1csc2ccccc12 (centres unmarked) [Example 39, 4-Benzo[b]thien-3-yl-1,4-dihydro-2,6-dimethyl-3,5-pyridinedicarboxylic acid, 2-methoxyethyl 1-methylethyl ester]"
4,0.151,"CCOC(=O)C1=C(C)NC(C)=C(C(=O)OCC)C1c1cccc2sccc12 [Example 55, 4-(Benzo[b]thien-4-yl)-1,4-dihydro-2,6-dimethyl-3,5-pyridinedicarboxylic a cid, diethyl ester]"

# More lines, now with the values behind:
row,Compound,IC50 [µM]
1,"COCCOC(=O)C1=C(C)NC(C)=C(C(=O)OC(C)C)C1c1csc2ccncc12 (centres unmarked) [Example 37, 1,4-Dihydro-2,6-dimethyl-4-thieno[3,2-c]pyridin-3-yl-3,5-pyridinedicarboxylic acid, 2-methoxyethyl 1-methylethyl ester]",0.166
2,"CC[C@H](C)OC(=O)C1=C(C)NC(C)=C(C(=O)OC)C1c1csc2ccncc12 (stereo partly drawn) [Example 40, 1,4-Dihydro-2,6-dimethyl-4-thieno[3,2-c]pyridin-3-yl-3,5-pyridinedicarboxylic acid, methyl(S)-1-methylpropyl ester]",0.0331
3,"COC(=O)C1=C(C)NC(C)=C(C(=O)OC(C)C)C1c1csc2cnccc12 (centres unmarked) [Example 41, 1,4-Dihydro-2,6-dimethyl-4-thieno[2,3-c]pyridin-3-yl-3,5-pyridinedicarboxylic acid, monomethyl mono(1-methylethyl)ester]",0.0324
4,"CCC(C)OC(=O)C1=C(C)NC(C)=C(C(=O)OC)[C@H]1c1csc2ccncc12 (stereo partly drawn) [Example 42, (R)-1,4-Dihydro-2,6-dimethyl-4-thieno[3,2-c]pyridin-3-yl-3,5-pyridinedicarboxylic acid, methyl 1-methylpropyl ester]",0.0813
5,"COC(=O)C1=C(C)NC(C)=C(C(=O)OCC(C)C)C1c1csc2ccncc12 (centres unmarked) [Example 43, 1,4-Dihydro-2,6-dimethyl-4-thieno[3,2-c]pyridin-3-yl-3,5-pyridinedicarboxylic acid, methyl 2-methylpropyl ester]",0.1
6,"COC(=O)C1=C(C)NC(C)=C(C(=O)OCC2CC2)C1c1csc2cnccc12 (centres unmarked) [Example 44, 1,4-Dihydro-2,6-dimethyl-4-thieno[2,3-c]pyridin-3-yl-3,5-pyridinedicarboxylic acid, cyclopropylmethyl methyl ester]",0.0708
7,"COC(=O)C1=C(C)NC(C)=C(C(=O)OC(C)(C)C)C1c1csc2ccncc12 (centres unmarked) [Example 45, 1,4-Dihydro-2,6-dimethyl-4-thieno[3,2-c]pyridin-3-yl-3,5-pyridinedicarboxylic acid, methyl 1,1-dimethylethyl ester]",0.646
8,"COC(=O)C1=C(C)NC(C)=C(C(=O)OCC2CC2)C1c1csc2cccnc12 (centres unmarked) [Example 46, 1,4-Dihydro-2,6-dimethyl-4-thieno[3,2-b]pyridin-3-yl-3,5-pyridinedicarboxylic acid, cyclopropylmethyl methyl ester]",0.0832
9,"COC(=O)C1=C(C)NC(C)=C(C(=O)OC(C)c2ccccc2)[C@@H]1c1csc2ccncc12 (stereo partly drawn) [Example 47, (R)-1,4-Dihydro-2,6-dimethyl-4-thieno[3,2-c]pyridin-3-yl-3,5-pyridinedicarboxylic acid, methyl 1-phenylethyl ester]",0.049
10,"C#CCOC(=O)C1=C(C)NC(C)=C(C(=O)OC)C1c1csc2ccncc12 (centres unmarked) [Example 48, 1,4-Dihydro-2,6-dimethyl-4-thieno[3,2-c]pyridin-3-yl-3,5-pyridinedicarboxylic acid, methyl 2-propynyl ester]",0.0912
11,"C=CCOC(=O)C1=C(C)NC(C)=C(C(=O)OC)C1c1csc2ccncc12 (centres unmarked) [Example 50, 1,4-Dihydro-2,6-dimethyl-4-thieno[3,2-c]pyridin-3-yl-3,5-pyridinecarboxylic acid, methyl 2-propenyl ester]",0.0407
12,"COC(=O)C1=C(C)NC(C)=C(C(=O)OCC2CC2)C1c1csc2ccncc12 (centres unmarked) [Example 51, 1,4-Dihydro-2,6-dimethyl-4-thieno[3,2-c]pyridin-3-yl-3,5-pyridinedicarboxylic acid, cyclopropylmethyl methyl ester]",0.00759
13,"CCCCOC(=O)C1=C(C)NC(C)=C(C(=O)OCCCC)C1c1csc2ccncc12 [Example 53, 1,4-Dihydro-2,6-dimethyl-4-thieno[3,2-c]pyridin-3-yl-3,5-pyridinedicarboxylic acid, dibutyl ester]",1.07

# Same assay, conditions: coronary artery rings contracted with 50 mM KCl, 37° C.; IC50 = 50% relaxation; mean values, probit analysis
row,-log IC50,Compound
1,5.7,"CCC(C)OC(=O)C1=C(C)NC(C)=C(C(=O)OC)[C@@H]1c1csc2ccccc12 (stereo partly drawn) [Example 36, (S)-4-benzo[b]thien-3-yl-1,4-dihydro-2,6-dimethyl-3,5-pyridinedicarboxylicacid, methyl 1-methylpropyl ester]"
2,6.94,"CCOC(=O)C1=C(C)NC(C)=C(C(=O)OCC)C1c1csc2ccncc12 [Example 52, 1,4-Dihydro-2,6-dimethyl-4-thieno[3,2-c]pyridin-3-yl-3,5-pyridinedicarboxylic acid, diethyl ester]"
3,7.1,"CCOC(=O)C1=C(C)NC(C)=C(C(=O)OCC)C1c1nccc2ccsc12 [Example 54, 1,4-Dihydro-2,6-dimethyl-4-thieno[2,3-c]pyridin-7-yl-3,5-pyridinedicarboxylic acid, diethyl ester]"
